Assay results taken from patent US6783949B1, “Processes for determining whether a test substance contains lipases or lipase inhibitors” (Aventis Pharma Deutschland GmbH, priority 1999, dated 2004).
Like-named read-outs stand apart in the source and are kept apart here.

Columns and labels:
pancreatic lipase = molecular target: T1, pancreatic lipase (Homo sapiens, UniProt P16233); experiment: Cleavage of NAG by pancreatic lipase; type: biochemical; details: for Increase in the absorption at 481 nm: Pancreatic lipase, 60 min, NAG 0.05 mg/ml
T1 sequence (P16233 17-465): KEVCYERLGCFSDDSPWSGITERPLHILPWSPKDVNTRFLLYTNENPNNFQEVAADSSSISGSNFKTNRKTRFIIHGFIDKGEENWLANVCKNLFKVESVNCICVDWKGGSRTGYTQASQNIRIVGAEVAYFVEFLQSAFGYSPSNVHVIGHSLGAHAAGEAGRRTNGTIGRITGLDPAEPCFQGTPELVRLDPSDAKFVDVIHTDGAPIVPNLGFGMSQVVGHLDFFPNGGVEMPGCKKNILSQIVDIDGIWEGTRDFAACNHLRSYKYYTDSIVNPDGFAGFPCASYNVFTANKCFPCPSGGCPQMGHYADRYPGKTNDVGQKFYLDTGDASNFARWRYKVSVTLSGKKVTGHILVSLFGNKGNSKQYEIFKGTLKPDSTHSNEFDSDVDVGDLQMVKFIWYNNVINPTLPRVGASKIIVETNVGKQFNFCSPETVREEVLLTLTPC

[1] = molecular target: PC-specific phospholipase from Bacillus cereus (Bacillus cereus, UniProt P09598); type: biochemical; details: for Increase in the absorption at 481 nm: PLC, 60 min, NAG 0.05 mg/ml
Sequence of PC-specific phospholipase from Bacillus cereus (P09598 39-283 limits assumed): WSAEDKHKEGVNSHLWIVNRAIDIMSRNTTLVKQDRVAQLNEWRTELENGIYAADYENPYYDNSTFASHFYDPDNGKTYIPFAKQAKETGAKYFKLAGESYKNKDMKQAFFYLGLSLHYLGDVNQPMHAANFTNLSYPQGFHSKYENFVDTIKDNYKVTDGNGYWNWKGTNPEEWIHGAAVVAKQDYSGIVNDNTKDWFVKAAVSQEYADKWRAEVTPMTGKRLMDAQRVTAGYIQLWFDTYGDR

SMILES: O=C(CCCCCCCCCCCNc1ccc([N+](=O)[O-])c2nonc12)OCC(O)CO (stereo not shown) [Compound (3)]
- Increase in the absorption at 481 nm (pancreatic lipase; enzyme 10 arb. units): 9 ± 2 arb. units
- Increase in the absorption at 481 nm (pancreatic lipase; enzyme 20 arb. units): 14 ± 4 arb. units
- Increase in the absorption at 481 nm (pancreatic lipase; enzyme 50 arb. units): 39 ± 7 arb. units
- Increase in the absorption at 481 nm (pancreatic lipase; enzyme 75 arb. units): 64 ± 10 arb. units
- Increase in the absorption at 481 nm (pancreatic lipase; enzyme 100 arb. units): 92 ± 14 arb. units
- Increase in the absorption at 481 nm (pancreatic lipase; enzyme 150 arb. units): 140 ± 18 arb. units
- Increase in the absorption at 481 nm (pancreatic lipase; enzyme 200 arb. units): 188 ± 21 arb. units
- Increase in the absorption at 481 nm (pancreatic lipase; enzyme 250 arb. units): 234 ± 30 arb. units
- Increase in the absorption at 481 nm (pancreatic lipase; enzyme 300 arb. units): 265 ± 34 arb. units
- Increase in the absorption at 481 nm (pancreatic lipase; enzyme 400 arb. units): 286 ± 32 arb. units
- Activity relative to HSL (pancreatic lipase; pancreatic lipase, conditions optimized for HSL): 1%
- Increase in the absorption at 481 nm ([1]; enzyme 10 arb. units): 0 arb. units
- Increase in the absorption at 481 nm ([1]; enzyme 20 arb. units): 1 ± 1 arb. units
- Increase in the absorption at 481 nm ([1]; enzyme 50 arb. units): 2 ± 2 arb. units
- Increase in the absorption at 481 nm ([1]; enzyme 75 arb. units): 2 ± 1 arb. units
- Increase in the absorption at 481 nm ([1]; enzyme 100 arb. units): 3 ± 1 arb. units
- Increase in the absorption at 481 nm ([1]; enzyme 150 arb. units): 3 ± 1 arb. units
- Increase in the absorption at 481 nm ([1]; enzyme 200 arb. units): 5 ± 2 arb. units
- Increase in the absorption at 481 nm ([1]; enzyme 250 arb. units): 5 ± 2 arb. units
- Increase in the absorption at 481 nm ([1]; enzyme 300 arb. units): 7 ± 3 arb. units
- Increase in the absorption at 481 nm ([1]; enzyme 400 arb. units): 10 ± 3 arb. units
- Activity relative to HSL ([1]; bacterial PC-specific phospholipase, conditions optimized for HSL): virtually inactive
